One data set deals with mice. The data set is described as follows: Toxicity after intravenous administration to mice, two-week observation. Conditions: for Survived?: mice, intravenous, alive at end of two-week period. Format: in vivo. The procedure: Physiological salts of the various ligand/metal cation complexes described herein were administered intravenously to mice. […] The mice were considered to have "survived" administration of each agent if they were alive at the end of the two-week period.

A short description of data set [1]: Relative equilibrium constant measurements (competition with EHPG for Fe(III)). It counts as physicochemical. The following applies: 0.25M phosphate buffer at pH 7.2, heated overnight at 100°C, TLC and colour. The procedure:
The highly colored Fe(III) complex of EHPG (used for comparison in part E of this example) was dissolved in 0.25 M phosphate buffer at pH 7.2, and an equimolar quantity of N,N',N''-tris(dihydroxyphosphorylmethyl)-1,4,7-triazacyclononane was added. The solution was heated overnight at 100°C.
The reverse experiment was also performed. The Fe(III) complex of N,N',N''-tris(dihydroxyphosphorylmethyl)-1,4,7-triazacyclononane was thus dissolved in 0.25M phosphate buffer at pH 7.2, and an equimolar quantity of EHPG was added. The solution was heated overnight at 100°C.

Data set [2] in a line: In vivo distribution of radioisotopically labeled analogs (radioassay of tissues). On the set-up: species or system mice. The following applies: radioisotope analog; for concentration of agent in brain: within the first hour. As to the method:
(§1) The resulting complexes were subjected to radiochromatography to insure acceptable radiopurity and identity with the parent complexes. They were then administered intravenously to mice in order to measure in vivo distribution and whole body clearance. The location of the test species in the mice's bodies and the rate at which the test species were cleared from the mice's bodies after administration were determined by radioassay of tissues and whole body counting, both performed by conventional gamma ray counting techniques. Concentration of activity in tissues was determined as activity per gram of tissue, and whole body counts were expressed as the percentage of whole body activity at a given time with respect to whole body activity immediately after injection. The results were as follows: • 1. Radioisotopes of Test Species A and B. In vivo distribution. […] By measurements taken one hour after administration, the ratio of the concentration of the test species in bone to that in whole blood was generally over 25:1, while the ratio of their concentration in kidney to that in blood was generally over 10:1. Even after 24 hours, when less than 5% of the administered dose remained in the body (see below), a high ratio of concentration of the test species in bone and kidney to that in blood was maintained. […] Whole Body Clearance. […] Radioisotope of Test species C. In vivo distribution. One hour after administration, the measured bone-to-blood concentration ratio was greater than 4.5:1, and the measured kidney-to-blood ratio was greater than 5.5:1. […] Whole Body Clearance. Within 24 hours of administration, over 95% of the tent species had been cleared from the body. • 3. Radioisotope of Test Species D. In vivo distribution. One hour after administration, the measured bone-to-blood concentration ratio was greater than 6:1, and the measured kidney-to-blood ratio was greater than 10:1. […] Whole Body Clearance.

A short description of data set [3]: Whole body clearance of radioisotopically labeled analogs (whole body counting). It counts as in vivo. The following applies: mice, intravenous, radioisotope analog. The procedure:
Radioisotopically labeled analogs of test species selected from those listed above were synthesized, using radioisotopes of Fe(III) (iron-59), Cr(III) (chromium-51) and Gd(III) (gadolinium-153), and employing the general synthesis procedures described above. The resulting complexes were subjected to radiochromatography to insure acceptable radiopurity and identity with the parent complexes. They were then administered intravenously to mice in order to measure in vivo distribution and whole body clearance.
as §1, with “The” for “The resulting complexes were subjected to radiochromatography to insure acceptable radiopurity and identity with the parent complexes. They were then administered intravenously to mice in order to measure in vivo distribution and whole body clearance. The”

Data set [4] is described as follows: Proton longitudinal relaxivity (1/τ1) measurements. Format: physicochemical. The following applies: 20 MHz, 0.1 M phosphate buffer at pH 7.2. The procedure:
Measurements of proton longitudinal relaxivity (1/τ1) were performed on some of the test species listed above, and compared with those obtained using the following complexes outside the scope of this invention: (i) Gd(III) with diethylenetriamine pentaacetic acid (DTPA), and (ii) Fe(III) with N,N'-ethylenebis[(2-hydroxyphenyl)-glycinate] (EHPG). All measurements were obtained using a Bruckner PC/20 Minispec device operating at 20 MHz. All samples were dissolved in 0.1 M phosphate buffer at pH 7.2.

Another data set can be described thus: Water solubility. Conditions: read-out: soluble in water at concentrations. It counts as physicochemical.
The nature of data set [5]: Stability: TLC before and after heating. Format: physicochemical. Conditions: heating at 100°C for two hours. As to the method: TLC was performed on test species A and D, both before and after heating at 100°C for two hours.
Setting [6] is: within 24 hours of administration.

`O=P(O)(O)CN1CCN(CP(=O)(O)O)CCN(CP(=O)(O)O)CC1` [Test Species F, N,N',N''-tris(dihydroxyphosphorylmethyl)-1,4,7-triazacyclononane]: the “Survived?” value in the data set with mice (Dose 8.0mM/kg, Rate 2.6mM/min/kg) is listed as “yes”.

For `O=P(O)(O)CN1CCN(CP(=O)(O)O)CCN(CP(=O)(O)O)CC1` [Test Species E, N,N',N''-tris(dihydroxyphosphorylmethyl)-1,4,7-triazacyclononane], the “Survived?” value in the data set with mice (Dose 2.9mM/kg, Rate 1.1mM/min/kg) is recorded as “yes”.

On to “Fe(III) complex of N,N',N''-tris(dihydroxyphosphorylmethyl)-1,4,7-triazacyclononane”, for which the “species present after equimolar EHPG was added to the Fe(III) complex (reverse experiment)” value in data set [1] is recorded as “TLC showed only the presence of the Fe(III) N,N',N''-tris(dihydroxyphosphorylmethyl)-1,4,7-triazacyclononane complex”.

For the compound `O=P(O)(O)CN1CCN(CP(=O)(O)O)CCN(CP(=O)(O)O)CC1` [Test Species D, N,N',N''-tris(dihydroxyphosphorylmethyl)-1,4,7-triazacyclononane], the “Survived?” value in the data set with mice (Dose 2.9mM/kg, Rate 0.5mM/sec/kg) was “yes”. The “concentration of agent in brain” value in data set [2] (mice, intravenous) was “very low concentration”.

With `O=P(O)(O)CCN1CCN(CCP(=O)(O)O)CCN(CCP(=O)(O)O)CC1` [Test Species C, N,N',N''-tris(dihydroxyphosphorylethyl)-1,4,7-triazacyclononane], the “Survived?” value with mice (Dose 10.0mM/kg, Rate 2.0mM/min/kg) is listed as “yes”. Also, the “cleared from the body” value in data set [3] (setting [6]) is “over 95%”. Further, the “concentration of agent in brain” value in data set [2] (mice, intravenous) was “very low concentration”.

Turning to `O=P(O)(O)CN1CCN(CP(=O)(O)O)CCN(CP(=O)(O)O)CC1` [Test Species B, N,N',N''-tris(dihydroxyphosphorylmethyl)-1,4,7-triazacyclononane], the “Survived?” value in the data set on mice (Dose 9.8mM/kg, Rate 0.7mM/min/kg) is reported as “yes”.

As for `O=P(O)(O)CN1CCN(CP(=O)(O)O)CCN(CP(=O)(O)O)CC1` [Test Species A, N,N',N''-tris(dihydroxyphosphorylmethyl)-1,4,7-triazacyclononane], the “Survived?” value with mice (Dose 11.8mM/kg, Rate 0.4mM/sec/kg) was “yes”. Also, the “toxicity observed, versus the single, chromatographically distinct product” value in the data set with mice (preparations made by alternate complexation procedures, containing multiple forms of the complex by TLC) was “substantially greater”. In addition, the “proton longitudinal relaxivity relative to the Fe(III) complex of EHPG (times greater)” value in data set [4] is recorded as “two to three”. Also, in the data set “Water solubility”, the solubility is above 500 mg/mL. Also, the “administered dose remained in the body” value in data set [3] (after 24 hours) is given as “less than 5%”. For the same compound, in data set [3] (setting [6]), the “cleared from the body” value is recorded as “over 95%” and the “route of whole body clearance” value is “almost exclusively through the urine”. Also, the “accumulation of activity in fractured tibia versus contralateral normal tibia” value in data set [2] (mice with a tibia broken two to four weeks prior to the study) was “significantly greater accumulation of activity”. Besides, the “ratio of concentration in bone and kidney to that in blood” value in data set [2] (mice, intravenous, after 24 hours) is “high ratio”. In addition, the “activity in the brain” value in data set [2] (mice, intravenous, at all times following administration) was “very low activity”. The “concentration of radioactivity in bone and kidneys” value in data set [2] (mice, intravenous, within 2 minutes following administration) was “evidence of concentration of radioactivity in bone and kidneys”. Moreover, the “TLC before and after heating” value in data set [5] was “A single, chromatographically distinct spot which did not vary as a result of the heating”.

Consider `O=P(O)(O)CN1CCN(CP(=O)(O)O)CCN(CP(=O)(O)O)CC1` [Test Species G, N,N',N''-tris(dihydroxyphosphorylmethyl)-1,4,7-triazacyclononane], for which, in the data set on mice (Dose 3.1mM/kg, Rate 0.8mM/min/kg), the “Survived?” value is given as “yes”.

Turning to `O=P(O)(O)CN1CCN(CP(=O)(O)O)CCN(CP(=O)(O)O)CC1` [N,N',N''-tris(dihydroxyphosphorylmethyl)-1,4,7-triazacyclononane], the “species present after equimolar ligand was added to Fe(III) complex of EHPG” value in data set [1] is on record as “TLC showed only the presence of the Fe(III) N,N',N''-tris(dihydroxyphosphorylmethyl)-1,4,7-triazacyclononane complex”.

The values are drawn from EP0513000B1, “MRI IMAGE ENHANCEMENT OF BONE AND RELATED TISSUE USING COMPLEXES OF PARAMAGNETIC CATIONS AND POLYPHOSPHONATE LIGANDS” (CONCAT LTD., priority 1989, dated 1991).
